Earlier results in patent US20250243467A1, “BONE MARROW ORGANOIDS PRODUCED FROM INDUCED PLURIPOTENT STEM CELLS AND USES OF THESE ORGANOIDS” (PRISM INGENUITY GMBH, priority 2022, published 2025).

Assays:
ALK7 = target: T1, ALK7 (Homo sapiens, UniProt Q8NER5); details: competing for the ATP binding site
T1 sequence (Q8NER5 21-493): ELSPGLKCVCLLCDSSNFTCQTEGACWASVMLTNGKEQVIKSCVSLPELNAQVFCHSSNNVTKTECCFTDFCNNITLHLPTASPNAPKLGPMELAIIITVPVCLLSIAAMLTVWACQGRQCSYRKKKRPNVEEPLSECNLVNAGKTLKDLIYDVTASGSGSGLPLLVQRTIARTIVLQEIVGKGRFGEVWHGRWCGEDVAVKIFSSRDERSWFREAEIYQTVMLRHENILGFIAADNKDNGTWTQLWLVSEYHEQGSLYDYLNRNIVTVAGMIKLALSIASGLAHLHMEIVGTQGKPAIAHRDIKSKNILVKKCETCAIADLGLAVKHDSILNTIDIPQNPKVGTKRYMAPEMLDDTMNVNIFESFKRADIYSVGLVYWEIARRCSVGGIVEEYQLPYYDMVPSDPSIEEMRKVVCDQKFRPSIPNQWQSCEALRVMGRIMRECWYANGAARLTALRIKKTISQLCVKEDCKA

ALK2 = ALK2 (Homo sapiens, UniProt Q04771)
ALK3 = ALK3 (Homo sapiens, UniProt P36894)
ALK6 = ALK6 (Homo sapiens, UniProt O00238)
ALK6, sequence (O00238 14-502): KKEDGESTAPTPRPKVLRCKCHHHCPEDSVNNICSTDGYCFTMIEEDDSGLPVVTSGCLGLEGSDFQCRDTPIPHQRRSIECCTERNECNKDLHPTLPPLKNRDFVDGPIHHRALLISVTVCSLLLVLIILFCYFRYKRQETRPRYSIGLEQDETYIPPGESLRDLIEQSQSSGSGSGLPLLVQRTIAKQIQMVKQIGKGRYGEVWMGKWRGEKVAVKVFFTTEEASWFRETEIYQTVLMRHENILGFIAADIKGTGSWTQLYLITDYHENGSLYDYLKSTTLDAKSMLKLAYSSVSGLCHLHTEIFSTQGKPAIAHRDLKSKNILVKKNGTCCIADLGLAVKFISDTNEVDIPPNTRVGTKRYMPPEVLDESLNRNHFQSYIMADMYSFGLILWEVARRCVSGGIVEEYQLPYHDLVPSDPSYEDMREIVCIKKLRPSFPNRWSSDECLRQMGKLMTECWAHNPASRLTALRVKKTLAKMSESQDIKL

ALK2, sequence (Q04771 21-509, species assumed): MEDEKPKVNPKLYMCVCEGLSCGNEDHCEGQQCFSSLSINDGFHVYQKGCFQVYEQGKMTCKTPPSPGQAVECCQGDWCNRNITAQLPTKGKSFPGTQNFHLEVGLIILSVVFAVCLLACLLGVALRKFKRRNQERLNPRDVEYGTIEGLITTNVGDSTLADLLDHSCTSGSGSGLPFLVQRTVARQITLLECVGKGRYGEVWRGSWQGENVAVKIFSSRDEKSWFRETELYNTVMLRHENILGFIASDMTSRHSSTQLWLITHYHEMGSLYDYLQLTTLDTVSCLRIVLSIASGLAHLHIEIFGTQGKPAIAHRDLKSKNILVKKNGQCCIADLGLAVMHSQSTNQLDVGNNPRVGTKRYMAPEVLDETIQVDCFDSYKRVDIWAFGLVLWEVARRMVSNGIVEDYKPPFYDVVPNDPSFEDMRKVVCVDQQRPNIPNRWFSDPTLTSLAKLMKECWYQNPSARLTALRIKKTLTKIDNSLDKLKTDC
ALK3, sequence (P36894 24-532, species assumed): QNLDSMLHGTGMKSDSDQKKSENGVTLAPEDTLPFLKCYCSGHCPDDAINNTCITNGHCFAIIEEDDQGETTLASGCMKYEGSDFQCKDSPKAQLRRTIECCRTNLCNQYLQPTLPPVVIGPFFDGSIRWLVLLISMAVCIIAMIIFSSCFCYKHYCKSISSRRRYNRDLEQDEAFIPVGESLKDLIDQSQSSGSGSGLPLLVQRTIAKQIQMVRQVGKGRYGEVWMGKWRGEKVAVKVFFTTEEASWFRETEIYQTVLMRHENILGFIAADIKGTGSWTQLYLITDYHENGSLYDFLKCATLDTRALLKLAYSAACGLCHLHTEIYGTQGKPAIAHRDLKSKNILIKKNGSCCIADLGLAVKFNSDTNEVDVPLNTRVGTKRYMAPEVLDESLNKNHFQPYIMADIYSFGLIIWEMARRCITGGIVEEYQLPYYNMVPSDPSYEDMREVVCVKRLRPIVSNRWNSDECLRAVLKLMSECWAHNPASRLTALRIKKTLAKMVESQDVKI

NC(=O)c1ccc(-c2nc(-c3ccc4c(c3)OCO4)c(-c3ccccn3)[nH]2)cc1 [SB431542]
inhibition of ALK7 (ALK7): inhibits | inhibition of BMP type I receptor ALK2 (ALK2): does not inhibit | inhibition of BMP type I receptor ALK3 (ALK3): does not inhibit | inhibition of BMP type I receptor ALK6 (ALK6): does not inhibit
